# In patent publication US12071431B2, “Pyridin-sulfonamide compounds for the treatment of conditions related to interleukin 1 beta” (ALLINKY BIOPHARMA, priority 2018, dated 2024):
# Columns and labels:
# p38 MAPK = p38 MAPK (Homo sapiens, UniProt Q16539); assay: In vitro binding of p38 MAPK, SPRi
# Description: Example 14—In Vitro Binding of p38 MAPK
# (§1) Various concentrations of p38 MAPK dissolved in water were manually printed onto a bare gold-coated (thickness 47 nm) PlexArray Nanocapture Sensor Chip (Plexera Bioscience, Seattle, WA, US) at 40% humidity. Each concentration was printed in replicate, and each spot contained 0.2 μL of protein solution. The chip was incubated in 80% humidity at 4° C. for overnight, and rinsed with 10×PBST for 10 min, 1×PBST for 10 min, and deionized water twice for 10 min. The chip was then blocked with 5% (w/v) non-fat milk in water overnight, and washed with 10×PBST for 10 min, 1×PBST for 10 min, and deionized water twice for 10 min before being dried under a stream of nitrogen prior to use.
# (§2) Surface Plasmon Resonance Imaging (SPRi) measurements were performed with PlexAray HT (Plexera Bioscience, Seattle, WA, US). Collimated light (660 nm) passes through the coupling prism, reflects off the SPR-active gold surface, and is received by the CCD camera. Buffers and samples were injected by a non-pulsatile piston pump into the 30 μL flowcell that was mounted on the coupling prism. Each measurement cycle contained four steps: washing with PBST running buffer at a constant rate of 2 μL/s to obtain a stable baseline, sample injection at 5 μL/s for binding, surface washing with PBST at 2 μL/s for 300 s, and regeneration with 0.5% (v/v) H3PO4 at 2 μL/s for 300 s. All the measurements were performed at 4° C.
# The signal changes after binding and washing (in AU) are recorded as the assay value. Selected protein-grafted regions in the SPR images were analyzed, and the average reflectivity variations of the chosen areas were plotted as a function of time. Real-time binding signals were recorded and analyzed by Data Analysis Module (DAM, Plexera Bioscience, Seattle, WA, US). Kinetic analysis was performed using BIAevaluation 4.1 software (Biacore, Inc.).
# Recombinant Human MAPK8 = Recombinant Human MAPK8 (Homo sapiens, UniProt P45983); assay: In vitro binding of JNK1 (MAPK8), SPRi; conditions: 4° C.
# Description: Example 13—In Vitro Binding of JNK1 (MAPK8)
# as §1, with “concentrations of Recombinant Human MAPK8 dissolved in” for “concentrations of p38 MAPK dissolved in”, “μL of the protein solution.” for “μL of protein solution.”, “4° C. overnight, and” for “4° C. for overnight, and”
# as §2
# The signal changes after binding and washing were recorded in AU as the assay value. Selected protein-grafted regions in the SPR images were analyzed, and the average reflectivity variations of the chosen areas were plotted as a function of time. Real-time binding signals were recorded and analyzed by Data Analysis Module (DAM, Plexera Bioscience, Seattle, WA, US). Kinetic analysis was performed using BIAevaluation 4.1 software (Biacore, Inc.).
# [1] = tested on: Non-Alcoholic Steatohepatitis (NASH) in male C57BL/6 mice; assay: Treatment of non-alcoholic steatohepatitis (NASH) in male C57BL/6 mice (streptozotocin + high-fat diet); format: in vivo
# Description: Example 15: Effect of Compound 5 and 7 in the Treatment of Non-Alcoholic Steatohepatitis (NASH) in Male C57BL/6 Mice
# Timed pregnant mice (n=30) were selected for the study. The delivered pups were subcutaneously injected on the post-natal day 2 (PND-2) with 200 μg of Streptozotocin and were allowed to remain with the mother until they reached the weanling age. After weanling, the male pups were selected and fed with 60% kcal fat diet (Research Diet-D12492) for the next 2 weeks. All the animals were observed twice daily for clinical signs.
# Mice were dosed with vehicle, test compounds and reference compound (elafibranor) twice daily morning (9.00 AM) and evening before the start of dark cycle (6:00 PM) from day 0 to 28.
# Animal body weight measurements were made daily for the complete duration of the experiment.
# Animals were dosed for 28 days (from week 6 to 10) with the test and reference compounds.
# Blood glucose was estimated before the treatment start and on the termination day 28. Serum ALT and AST levels were measured from the plasma before the treatment start and on day 28.
# Histopathology analysis including H&E staining, Masson's trichrome staining and Oil-Red-O (ORO) staining was performed for the liver tissues.
# All the H&E stained tissue sections were examined by light microscopy. As per the below grading system (Kleiner et al., 2005) in 200× objective lens, NAFLD scoring was done for steatosis, lobular inflammation and hepatic ballooning.
# All the Masson's trichrome stained tissue sections were examined by light microscopy in 100× objective lens. Randomly selected five fields (approx 684.85 μm×917.11 m per field) from each liver were subjected to collagen proportion area measurement by using Image Pro Premier 9.1 software. The percentage of collagen proportion area was calculated by dividing collagen tissue area by total tissue area.
# All the Oil-Red-O stained tissue sections were examined by light microscopy in 100× objective lens. Randomly selected five fields (approximately 688.33 μm×922.45 μm per field) from each liver were subjected to measure stained area by using Image Pro Premier 9.1 software. The percentage of stained area was calculated by dividing lipid stained tissue area by total tissue area.
# [2] = 3 mg/kg dose, twice daily, 28 days, H&E NAFLD scoring
# p38 MAPK, sequence (Q16539 2-360): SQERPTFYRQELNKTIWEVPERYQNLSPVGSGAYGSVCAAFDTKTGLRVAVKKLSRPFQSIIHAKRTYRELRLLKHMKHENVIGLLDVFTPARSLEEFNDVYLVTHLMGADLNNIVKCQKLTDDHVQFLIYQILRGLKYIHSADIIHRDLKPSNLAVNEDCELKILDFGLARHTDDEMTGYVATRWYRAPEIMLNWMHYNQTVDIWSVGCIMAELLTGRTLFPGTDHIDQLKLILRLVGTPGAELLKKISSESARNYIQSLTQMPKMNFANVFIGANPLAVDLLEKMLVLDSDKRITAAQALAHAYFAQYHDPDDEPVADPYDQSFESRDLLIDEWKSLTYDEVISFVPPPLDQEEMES
# Recombinant Human MAPK8, sequence (P45983 whole entry): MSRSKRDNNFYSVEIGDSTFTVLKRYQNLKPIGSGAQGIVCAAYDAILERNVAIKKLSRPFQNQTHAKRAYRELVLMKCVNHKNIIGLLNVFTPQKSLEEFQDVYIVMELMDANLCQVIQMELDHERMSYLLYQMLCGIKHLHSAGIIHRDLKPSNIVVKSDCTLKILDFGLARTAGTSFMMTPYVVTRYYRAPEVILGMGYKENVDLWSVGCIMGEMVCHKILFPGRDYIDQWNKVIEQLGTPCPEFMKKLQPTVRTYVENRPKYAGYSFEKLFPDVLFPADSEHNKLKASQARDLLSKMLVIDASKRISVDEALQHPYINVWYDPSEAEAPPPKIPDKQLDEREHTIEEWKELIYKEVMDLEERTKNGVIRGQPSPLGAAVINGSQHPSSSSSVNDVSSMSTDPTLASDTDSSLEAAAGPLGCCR
smiles,measurement,setting,value
CCOc1ccc(Oc2cc(S(=O)(=O)N(C)C)cnc2N2CCC(Oc3ccc(Cl)cc3)CC2)cc1 [Compound 7],Kd,"p38 MAPK; SPRi, 4° C., p38 MAPK, read-out: equilibrium dissociation constant (KD Value)",11.9 nM
same,kon,p38 MAPK; read-out: Ka,20800 M⁻¹ s⁻¹
same,koff,p38 MAPK; read-out: Kd,0.000248 s⁻¹
same,kon,"Recombinant Human MAPK8; association rate, read-out: Ka",22900 M⁻¹ s⁻¹
same,koff,Recombinant Human MAPK8; dissociation rate,0.000782 s⁻¹
same,Kd,Recombinant Human MAPK8; read-out: equilibrium dissociation constant (KD Value),34.1 nM
same,NAFLD activity score (NAS),"[1]; 3 mg/kg dose, twice daily, 28 days, FIG. 1",better NAS score than Elafibranor
same,lobular inflammation in the liver,[1]; [2],significantly reduced
same,steatosis in the liver,[1]; [2],significantly reduced
same,hepatomegaly and liver to body weight ratio,"[1]; 28 days of treatment, FIG. 3",did not show any hepatomegaly and increase in liver to body weight ratio
same,Serum AST levels,"[1]; after 28 days of treatment, FIG. 2",significantly reduced
